Experimental data: US9066923B2, “Methods for Alzheimer's disease treatment and cognitive enhancement” (Blanchette Rockefeller Neurosciences Institute, priority 2002, dated 2015)

How the values were obtained:
sAPPα secretion = sAPPα secretion in cultured human skin fibroblasts (immunoblot, antibody 6E10); type: cell-based
Procedure: (§1) Cultured skin fibroblasts were obtained from the Coriell Cell Repositories and grown using the general guidelines established for their culture with slight modifications (Cristofalo & Carptentier, 1988; Hirashima et al., 1996). The culture medium in which cells were grown was Dulbecco's modified Eagle's medium (GIBCO) supplemented with 10% calf serum (Biofluids, Inc.). Fibroblasts from control cell lines (AC), cases AG07141 and AG06241, and a familial AD (FAD) case (AG06848) were utilized.

PKCα isozyme [1] = biological target: T1, PKCα isozyme (Homo sapiens, UniProt P17252); assay: PKC translocation to the cell membrane (immunoblot of cytosolic and membranous fractions of fibroblasts); type: cell-based
T1 construct: endogenous in cells; host or cells: cultured skin fibroblasts from Coriell Cell Repositories (AG07141, AG06241, AG06848)
Procedure: as §1
Immunoblot experiments were conducted using well-established procedures (Dunbar, 1994). Cells were grown to confluency (˜90%) in 6 cm Petri dishes. […] Fibroblasts were washed twice with ice-cold PBS, scraped in PBS, and collected by low-speed centrifugation. The pellets were re-suspended in the following homogenization buffer: 20 mM Tris-HCl, pH 7.5, 2 mM EDTA, 2 mM EGTA, 5 mM DTT, 0.32 M sucrose, and protease inhibitor cocktail (Sigma). Hemogenates were obtained by sonication, and centrifuged at […] for 20 minutes, and the supernatants were used as the cytosolic fraction. The pellets were homogenized in the same buffer containing 1.0% Triton X-100, incubated in ice for 45 minutes, and centrifuged at ˜12,000 g for 20 minutes. The supernatant from this batch was used as the membranous fraction. After protein determination, 20 μg of protein were diluted in 2× electrophoresis sample buffer (Novex), boiled for 5 minutes, run on 10% acrylamide gel, and transferred electrophoretically to a PVDF membrane. The membrane was saturated with 5% milk blocker by incubating it at room temperature for an hour. The primary antibody for PKC isoform (Transduction Laboratories) was diluted (1:1000) in blocking solution and incubated with the membrane overnight at 4° C. After incubation with the secondary antibody, alkaline phosphatase anti-mouse IgG (Vector Laboratories), the membrane was developed using a chemoluminescent substrate (Vector Laboratories) per the manufacturer's instructions. The band intensities were quantified by densitometry using a BioRad GS-800 calibrated scanning densitometer and Multianalyst software (BioRad).

rats = assay: Morris Water Maze; type: in vivo, rat; conditions: intraventricular injection
Excerpt: (See, for example, Hollister, L. E., 1990, Pharmacopsychiat., 23, (Suppl II) 33-36). The available animal models of memory loss and impaired learning involve measuring the ability of animals to remember a discrete event. These tests include the Morris Water Maze and the passive avoidance procedure. In the Morris Water Maze, animals are allowed to swim in a tank divided into four quadrants, only one of which has a safety platform beneath the water. The platform is removed and the animals are tested for how long they search the correct quadrant verse the incorrect quadrants. In the passive avoidance procedure the animal remembers the distinctive environment in which a mild electric shock is delivered and avoids it on a second occasion. A variant of the passive avoidance procedure makes use of a rodent's preference for dark enclosed environments over light open ones. Further discussion can be found in Crawley, J. N., 1981, Pharmacol. Biochem. Behav., 15, 695-699; Costall, B. et al, 1987, Neuropharmacol., 26, 195-200; Costall, B. et al., 1989, Pharmacol. Biochem. Behav., 32, 777-785; Barnes, J. M. et al., 1989, Br. J. Pharmacol., 98 (Suppl) 693P; Barnes, J. M. et al. 1990, Pharmacol. Biochem. Behav., 35, 955-962.
In the present example, rats were injected intraventricularly with bryostatin-1 and trained for 4 days (following standard protocols). Retention was assessed on the 5th day. […] Acquisition of memory was measured as time spent in the relevant quadrant (5th day). […] (See, FIG. 4). Bryostatin is capable of being used at concentrations to improve cognition that are 300 to 300,000 times lower than the concentration used to treat tumors.

PKCα isozyme [2] = biological target: T1, PKCα isozyme; conditions: cited from earlier work
patients = conditions: cited from earlier work
tumor promotion = conditions: cited from earlier work
[3] = system: diacylglycerol-protein kinase C; conditions: aorta of diabetic rats and cultured rat smooth muscle cells exposed to elevated glucose (Kunisaki et al. 1994); cited from earlier work
[4] = system: patients suffering from moderately advanced Alzheimer's Disease; conditions: 2000 IU/day (Burke et al. 1999); cited from earlier work

Compound	sAPP secretion (sAPPα secretion; 0.1 nM bryostatin-1, compared to vehicle alone and benzolactam)	sAPPα secretion, efficacy compared with controls and Benzolactam (FIG. 1) (sAPPα secretion; FIG. 1)	sAPP secretion (sAPPα secretion; bryostatin at 0.01 nM)	activation of PKC (immunoblot, FIG. 7) (PKCα isozyme [1]; 0.1 nM bryostatin-1, 30 minutes after delivery)	response demonstrating the activation of PKC (FIG. 7) (PKCα isozyme [1]; AD cells, FIG. 7)	time of maximal PKC translocation to the cell membrane (PKC activation) (PKCα isozyme [1]; bryostatin) [min]	PKC translocation after the maximum, compared with basal level (PKCα isozyme [1]; partial decline after 30 min, followed up to six hours)	memory or retention: time spent in the relevant quadrant (rats; 5th day, versus sham injection)	time to improved cognition compared to control rats (rats; FIG. 4) [days]	learning: escape latency from trial to trial (rats; trained for 4 days, versus sham injection)	shape of the dose response curve as PKC activator (PKCα isozyme [2])	tolerability (patients; 20 μg/m^2 once per week for 3 weeks (Weitman et al. 1999))	maximum-tolerated dose (patients; 1 hour i.v. infusion once every 2 weeks for 6 weeks (Prendville et al. 1993)) [μg/m^2]	maximum tolerated dose (patients; once per week for 8 weeks (Jayson et al. 1995)) [μg/m^2]	tumor promotion activity (tumor promotion)	diacylglycerol-protein kinase C activation [3]	cognitive abilities [4]	mortality and morbidity [4]
CCC/C=C/C=C/C(=O)O[C@H]1/C(=C/C(=O)OC)C[C@H]2C[C@H]([C@@H](C)O)OC(=O)C[C@H](O)C[C@@H]3C[C@H](OC(C)=O)C(C)(C)[C@](O)(C[C@@H]4C/C(=C/C(=O)OC)C[C@H](/C=C/C(C)(C)[C@]1(O)O2)O4)O3 [bryostatin-1]	dramatic increase of sAPP secretion	greater efficacy at lower concentrations than controls and Benzolactam	still proved effective to increase sAPP secretion	easily detectable	powerful response	30	remains higher than basal translocation levels up to six hours	significantly enhanced	≤ 2	significantly lower	biphasic	well tolerated and were not associated with myalgia or other side effects	50	25	devoid of tumor promotion activity			
vitamin E																normalize diacylglycerol-protein kinase C activation	did not enhance cognitive abilities	reduced mortality and morbidity
